Patent publication US10730875B2, “Substituted imidazo[1,2-A]pyridin-2-ylamine compounds, and pharmaceutical compositions and methods of use thereof” (JN Therapeutics, priority 2015, dated 2020)

Columns and labels:
Format in all cases: biochemical
[1] = biological target: human tyrosine kinase 2 (TYK2), recombinant catalytic domain (Homo sapiens (Human), UniProt P29597); experiment: LanthaScreen TR-FRET enzymatic assay, TYK2; details: TR-FRET, 1 mM ATP, GFP-STAT1 substrate; read-out: Inhibitory Activity IC50 TYK2
Description: (§1) The in vitro inhibition of recombinant human JAKs was determined as follow.
(§2) Compounds were tested in LANTHASCREEN™ time-resolved fluorescence energy transfer (TR-FRET) enzymatic assays from Invitrogen. The human Janus kinase 1 (JAK1) used in the assay is the recombinant JAK1 catalytic domain (amino acids 866-1154) expressed and purified from insect cells (Invitrogen, Cat. No. PV4774). The human Janus kinase 2 (JAK2) used in the assay is the recombinant JAK2 catalytic domain (amino acids 808-1132) expressed and purified from insect cells (Invitrogen, Cat. No. PV4210). The human Janus kinase 3 (JAK3) used in the assay is the recombinant JAK3 catalytic domain (amino acids 781-1124) expressed and purified from insect cells (Invitrogen, Cat. No. PV3855). The human tyrosine kinase 2 (TYK2) used in the assay is the recombinant TYK2 catalytic domain (amino acids 833-1187) expressed and purified from insect cells (Invitrogen, Cat. No. PV4790). The substrate is a recombinant STAT1 expressed as a fusion with GFP (Green Fluorescent Protein) to act as a physiological substrate (Invitrogen, Cat. No. PV5211).
(§3) Test compounds were prepared and diluted in DMSO in 3-fold serial dilutions for 10 doses to 100× of the final testing concentrations. The compounds were then further diluted to 4× by the kinase reaction buffer (Invitrogen, Cat. No. PV3189). The enzymatic reaction for compound testing was performed in a white 384-well polypropylene plate (Packard, Cat. No. 6005214) with a total reaction volume of 10 μL containing 440 ng/mL JAK1, 11 ng/mL JAK2, 400 ng/mL JAK3, or 200 ng/mL TYK2, 100 nM substrate, and 1 mM ATP. The assay started with loading 2.5 μL of JAK1, JAK2, JAK3, or TYK2 diluted in the kinase reaction buffer to wells, followed by addition of an equal volume of 4× compounds for 15-min incubation at room temperature for pre-treatment. The enzymatic reaction was initiated by addition of 5 μL of a mixture of the substrate and ATP prepared in the kinase reaction buffer. After one hour reaction, 10 μL mixture of EDTA (final 10 mM) and terbium-labeled anti-pSTAT1 (pTyr701) antibody (final 2 nM) (Invitrogen, Cat. No. PV4844) prepared in TR-FRET antibody dilution buffer (Invitrogen, Cat. No. PV3574) was added to stop the enzymatic reaction and produce TR-FRET signals. After 30 minutes of incubation at room temperature, the plate was read in Tecan Infinite F200 Pro with the following settings: Excitation 340 nm (30)/Emission1 495 nm (10)/Emission2 520 nm (25). The TR-FRET values were dimensionless numbers that were calculated as the ratio of the acceptor ([…]) signal to the donor (Terbium) signal. Percent of inhibition was calculated as (100%−percentage of compound-treated/DMSO vehicle-treated). The dose-response curves were generated and the IC50s were calculated by nonlinear sigmoid curve fitting using GraphPad Prism.
(§4) In Table 1, A represents a value no greater than 500 nM, B represents a value greater than 500 nM but no greater than 1 μM, C represents a value greater than 1 μM but no greater than 5 μM, and D represents a value greater than 5 μM. In Table 2, A′ represents a ratio of greater than 8, B′ represents a ratio of no greater than 8 but no less than 4, C′ represents a ratio of no greater than 4 but no less than 2, and D′ represents a ratio of no greater than 2. The selectivity is expressed as a ratio of the IC50 values of a compound against two kinases to be compared.

[2] = system: human tyrosine kinase 2 (TYK2), recombinant catalytic domain; experiment: LanthaScreen TR-FRET enzymatic assay, TYK2; details: ratio of IC50 against TYK2 over IC50 against JAK1
Description: as §1, §2, §3, §4

[3] = biological target: human Janus kinase 2 (JAK2), recombinant catalytic domain (Homo sapiens (Human), UniProt O60674); experiment: LanthaScreen TR-FRET enzymatic assay, JAK2; details: for IC50: TR-FRET, 1 mM ATP, GFP-STAT1 substrate, read-out: Inhibitory Activity IC50 JAK2; for Selectivity JAK2/JAK1: ratio of IC50 against JAK2 over IC50 against JAK1
Description: as §1, §2, §3, §4

[4] = biological target: human Janus kinase 1 (JAK1), recombinant catalytic domain (Homo sapiens (Human), UniProt P23458); experiment: LanthaScreen TR-FRET enzymatic assay, JAK1; details: 1 mM ATP, GFP-STAT1 substrate, read-out: Inhibitory Activity IC50 JAK1
Description: as §1, §2, §3, §4

[5] = system: human Janus kinase 3 (JAK3), recombinant catalytic domain; experiment: LanthaScreen TR-FRET enzymatic assay, JAK3; details: ratio of IC50 against JAK3 over IC50 against JAK1
Description: as §1, §2, §3, §4

[6] = biological target: human Janus kinase 3 (JAK3), recombinant catalytic domain (Homo sapiens (Human), UniProt P52333); experiment: LanthaScreen TR-FRET enzymatic assay, JAK3; details: TR-FRET, 1 mM ATP, GFP-STAT1 substrate; read-out: Inhibitory Activity IC50 JAK3
Description: as §1, §2, §3, §4

Sequence of human Janus kinase 3 (JAK3), recombinant catalytic domain (Homo sapiens (Human), UniProt P52333) (P52333 781-1124): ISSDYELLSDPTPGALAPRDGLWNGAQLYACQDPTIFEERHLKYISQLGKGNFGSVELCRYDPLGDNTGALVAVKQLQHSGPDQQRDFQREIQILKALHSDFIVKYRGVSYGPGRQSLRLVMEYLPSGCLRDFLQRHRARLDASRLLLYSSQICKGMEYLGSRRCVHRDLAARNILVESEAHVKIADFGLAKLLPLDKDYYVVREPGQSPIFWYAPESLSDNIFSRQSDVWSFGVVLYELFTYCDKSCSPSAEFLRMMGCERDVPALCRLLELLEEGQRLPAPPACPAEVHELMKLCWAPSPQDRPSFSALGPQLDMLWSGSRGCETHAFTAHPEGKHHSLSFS
Sequence of human Janus kinase 2 (JAK2), recombinant catalytic domain (O60674 808-1132): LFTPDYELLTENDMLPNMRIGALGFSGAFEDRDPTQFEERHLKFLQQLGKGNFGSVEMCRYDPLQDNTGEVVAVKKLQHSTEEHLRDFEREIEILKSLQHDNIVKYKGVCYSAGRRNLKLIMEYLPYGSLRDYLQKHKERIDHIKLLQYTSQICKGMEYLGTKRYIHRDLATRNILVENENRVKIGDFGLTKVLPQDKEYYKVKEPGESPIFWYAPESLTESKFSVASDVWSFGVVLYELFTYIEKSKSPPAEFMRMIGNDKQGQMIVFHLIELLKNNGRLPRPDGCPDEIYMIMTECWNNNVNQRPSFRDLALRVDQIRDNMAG
Sequence of human Janus kinase 1 (JAK1), recombinant catalytic domain (P23458 866-1154): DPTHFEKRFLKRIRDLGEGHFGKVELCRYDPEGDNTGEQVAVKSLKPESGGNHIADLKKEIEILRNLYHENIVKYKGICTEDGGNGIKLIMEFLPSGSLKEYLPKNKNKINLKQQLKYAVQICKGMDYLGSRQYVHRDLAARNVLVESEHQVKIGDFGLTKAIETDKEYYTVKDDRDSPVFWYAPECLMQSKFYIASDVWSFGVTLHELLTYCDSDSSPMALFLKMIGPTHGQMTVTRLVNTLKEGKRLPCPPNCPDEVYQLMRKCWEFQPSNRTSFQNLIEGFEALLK
Sequence of human tyrosine kinase 2 (TYK2), recombinant catalytic domain (Homo sapiens (Human), UniProt P29597) (P29597 833-1187): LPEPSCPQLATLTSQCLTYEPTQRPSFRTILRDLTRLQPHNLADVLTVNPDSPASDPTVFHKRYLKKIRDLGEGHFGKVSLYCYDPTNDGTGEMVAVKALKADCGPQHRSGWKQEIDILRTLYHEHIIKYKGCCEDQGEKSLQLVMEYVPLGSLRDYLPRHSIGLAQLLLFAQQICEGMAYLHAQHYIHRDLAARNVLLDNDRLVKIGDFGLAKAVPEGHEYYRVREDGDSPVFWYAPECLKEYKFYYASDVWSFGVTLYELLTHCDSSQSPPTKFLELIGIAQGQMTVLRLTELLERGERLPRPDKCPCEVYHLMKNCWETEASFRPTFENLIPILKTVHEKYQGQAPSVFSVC

| SMILES | IC50 [1] [µM] | IC50 [3] [µM] | IC50 [4] [µM] | IC50 [6] [µM] | Selectivity TYK2/JAK1 [2] | Selectivity JAK2/JAK1 [3] | Selectivity JAK3/JAK1 [5] |
| --- | --- | --- | --- | --- | --- | --- | --- |
| O=C(Nc1cn2c(-c3ccc(C(=O)N4CCS(=O)(=O)CC4)cc3)cccc2n1)C1CC1 [Compound 13, N-(5-(4-(1,1-Dioxo-1-thiomorpholine-4-carbonyl)phenyl)imidazo[1,2-a]pyridin-2-yl)cyclopropane Carboxamide] | > 5 | > 5 | 0.5 to 1 | > 5 | A′ (A′ represents a ratio of greater than 8) | A′ (A′ represents a ratio of greater than 8) | A′ (A′ represents a ratio of greater than 8) |
| CN1CCN(Cc2ccc(-c3cccc4nc(NC(=O)C5CC5)cn34)cc2)CC1 [Compound 5] | > 5 | > 5 | > 5 | > 5 | A′ (A′ represents a ratio of greater than 8) | A′ (A′ represents a ratio of greater than 8) | A′ (A′ represents a ratio of greater than 8) |
| O=C(Nc1cn2c(-c3ccc(CN4CCS(=O)(=O)CC4)cc3)c(Cl)ccc2n1)C1CC1 [Compound 34] | > 5 | > 5 | > 5 | > 5 |  |  |  |
| O=C(Nc1cn2c(-c3cccc(CN4CCS(=O)(=O)CC4)c3)cccc2n1)C1CC1 [Compound 29] | > 5 | > 5 | > 5 | > 5 | C′ (C′ represents a ratio of no greater than 4 but no less than 2) | C′ (C′ represents a ratio of no greater than 4 but no less than 2) | A′ (A′ represents a ratio of greater than 8) |
| Cc1ccc(-c2ccc(CN3CCS(=O)(=O)CC3)cc2)n2cc(NC(=O)C3CC3)nc12 [Compound 35] | > 5 | > 5 | > 5 | > 5 |  |  |  |
| N#CC1(c2ccc(-c3cccc4nc(NC(=O)C5CC5)cn34)cc2)CC1 [Compound 22] |  |  |  | > 5 |  | A′ (A′ represents a ratio of greater than 8) |  |
| CC1(C)CN(C(=O)c2ccc(-c3cccc4nc(NC(=O)C5CC5)cn34)c(F)c2)C1 [Compound 23] | > 5 | > 5 | 0.5 to 1 | > 5 | A′ (A′ represents a ratio of greater than 8) | A′ (A′ represents a ratio of greater than 8) | A′ (A′ represents a ratio of greater than 8) |
| O=C(Nc1cn2c(-c3ccc(CN4CC[C@@H](O)C4)cc3)cccc2n1)C1CC1 [Compound 9] | > 5 | > 5 | 1 to 5 | > 5 | A′ (A′ represents a ratio of greater than 8) | A′ (A′ represents a ratio of greater than 8) | A′ (A′ represents a ratio of greater than 8) |
| CC1(C)CN(Cc2ccc(-c3cccc4nc(NC(=O)C5CC5)cn34)cc2)C1 [Compound 25] | > 5 | > 5 | > 5 | > 5 | A′ (A′ represents a ratio of greater than 8) | A′ (A′ represents a ratio of greater than 8) | A′ (A′ represents a ratio of greater than 8) |
| N#CCc1ccc(-c2cccc3nc(NC(=O)C4CC4)cn23)c(F)c1 [Compound 16] | > 5 | > 5 | ≤ 0.5 | > 5 | A′ (A′ represents a ratio of greater than 8) | A′ (A′ represents a ratio of greater than 8) | A′ (A′ represents a ratio of greater than 8) |

More lines, main results first:

| IC50 [1] [µM] | IC50 [3] [µM] | IC50 [4] [µM] | IC50 [6] [µM] | SMILES | Selectivity TYK2/JAK1 [2] | Selectivity JAK2/JAK1 [3] | Selectivity JAK3/JAK1 [5] |
| --- | --- | --- | --- | --- | --- | --- | --- |
| > 5 | > 5 | > 5 | > 5 | Cc1cc(-c2ccc(CN3CCS(=O)(=O)CC3)cc2)n2cc(NC(=O)C3CC3)nc2c1 [Compound 33] | A′ (A′ represents a ratio of greater than 8) | A′ (A′ represents a ratio of greater than 8) | A′ (A′ represents a ratio of greater than 8) |
| > 5 | > 5 | ≤ 0.5 | > 5 | N#CCc1ccccc1NCc1ccc(-c2cccc3nc(NC(=O)C4CC4)cn23)cc1 [Compound 32] | A′ (A′ represents a ratio of greater than 8) | A′ (A′ represents a ratio of greater than 8) | A′ (A′ represents a ratio of greater than 8) |
| > 5 | > 5 | 0.5 to 1 | > 5 | O=C(Nc1cn2c(-c3ccc(CN4CC[C@H](O)C4)cc3)cccc2n1)C1CC1 [Compound 8] | A′ (A′ represents a ratio of greater than 8) | A′ (A′ represents a ratio of greater than 8) | A′ (A′ represents a ratio of greater than 8) |
| > 5 | > 5 | 0.5 to 1 | > 5 | CC(C#N)c1ccc(-c2cccc3nc(NC(=O)C4CC4)cn23)cc1 (stereo not shown) [Compound 27] | A′ (A′ represents a ratio of greater than 8) | A′ (A′ represents a ratio of greater than 8) | A′ (A′ represents a ratio of greater than 8) |
| > 5 | > 5 | 0.5 to 1 | > 5 | N#CC1CCN(Cc2ccc(-c3cccc4nc(NC(=O)C5CC5)cn34)cc2)CC1 [Compound 7] | A′ (A′ represents a ratio of greater than 8) | A′ (A′ represents a ratio of greater than 8) | A′ (A′ represents a ratio of greater than 8) |
| > 5 | > 5 | > 5 | > 5 | N#CCc1ccc(-c2cccc3nc(N)cn23)c(F)c1 [Compound 21] | C′ (C′ represents a ratio of no greater than 4 but no less than 2) | A′ (A′ represents a ratio of greater than 8) | A′ (A′ represents a ratio of greater than 8) |
| > 5 | > 5 | 1 to 5 | > 5 | O=C(Nc1cn2c(-c3ccc(CN4CCCCC4)cc3)cccc2n1)C1CC1 [Compound 6] | A′ (A′ represents a ratio of greater than 8) | A′ (A′ represents a ratio of greater than 8) | A′ (A′ represents a ratio of greater than 8) |
| > 5 | > 5 | 1 to 5 | > 5 | O=C(Nc1cn2c(-c3ccc(CN4CCS(=O)(=O)CC4)cc3)cccc2n1)C1CCC1 [Compound 3] | A′ (A′ represents a ratio of greater than 8) | A′ (A′ represents a ratio of greater than 8) | A′ (A′ represents a ratio of greater than 8) |
